This test has as its target T1, myoferlin (MYOF) (Homo sapiens, UniProt Q9NZM1).
T1 construct: C2D domain (F3 construct, amino acids 1116–1272, GST fusion in pGEX4T-1; ~44 kDa in SPR)
T1 sequence (Q9NZM1 1116-1272): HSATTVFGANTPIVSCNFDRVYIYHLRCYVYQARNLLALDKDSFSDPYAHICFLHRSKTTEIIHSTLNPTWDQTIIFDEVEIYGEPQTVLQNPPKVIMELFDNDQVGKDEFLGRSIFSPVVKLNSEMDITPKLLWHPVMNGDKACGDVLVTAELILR
As to the kind of experiment: SPR (Biacore X-100, C2D immobilized on CM5 chip); supported by competition pull-down with WJ460-biotin. In kind it is binding. A general note: Surface plasmon resonance follows binding to a sensor surface in real time, without labels.

The record followed here is publication PMC6137146, “A small molecule targeting myoferlin exerts promising anti-tumor effects on breast cancer” (Nature Communications, 2018).

SMILES strings stand for the structures.

As a reminder, the Kd is a measure of binding affinity in units of concentration. A low value points to higher affinity. Compound `COc1ccccc1N1C(=O)CSC1c1cccc(C(=O)NCCCCc2ccccc2)c1` (stereo not shown) [WJ460] showed a Kd of approximately 1330 nM.
